{"source": "patent US11866416B2", "about": "“Streptococcus mutans glucosyl transferase inhibitors for dental caries therapy” (UAB Research Foundation, priority 2018, dated 2024)", "key": {"[1]": {"system": "S. gordonii biofilm", "experiment": "Mono-species biofilm of S. gordonii", "assay_type": "cell-based, Streptococcus gordonii", "details": "treated with lead compound", "method": "(§1) Growth of commensal and dual-species biofilms. Overnight broth cultures were transferred by 1:50 dilutions into fresh THB medium and were allowed to grow until mid-exponential phase (OD470 nm=0.6) before transfer to 96-well plates. For mono-species biofilms, 1:100 dilution of the individual cultures was added to the 96-well plate containing the desired concentration of compound or DMSO. After incubation for 16 h, the biofilms were gently washed with PBS in triplicate and the biofilms were quantified with crystal violet staining. For dual-species biofilms, 1:100 dilution of S. mutans was used and 1:10 dilution of the commensal species (S. sanguinius or S. gordonii) was used as inoculum to seed the 96-well plate containing the desired concentration of compound or DMSO. After incubation for 16 h, the biofilms were scratched off with a sterile spatula and suspended in 100 μL of PBS, the biofilm samples were vortexed. To determine the total number of viable bacterial cells (colony forming units, CFU), 100 μl from dispersed, 16 h biofilms were serially diluted in potassium phosphate buffer and plated in duplicate on BAP. The commensal species could be differentiated from S. mutans due to their characteristic green rings."}, "[2]": {"system": "Actinomyces naeslundii T14VJ1", "experiment": "Growth of Actinomyces naeslundii", "assay_type": "cell-based", "details": "200 μM; printed as slight inhibition (>20%)", "method": "Cell viability of S. mutans, S. gordonii, S. sanguinis, Aggregatibacter actinomycetemcomitans and Actinomyces. […] The number of colony-forming units (CFU) per milliliter of each sample treated with selected compounds at different concentrations was enumerated after incubation for 24 h at 37° C. and compared to the values obtained from the DMSO control group. Overnight broth cultures were transferred by 1:50 dilutions into fresh THB medium and were allowed to grow until mid-exponential phase (OD470 nm 0.6) before transfer to 96-well plates containing desired concentration of the compound. After 16 h incubation, bacterial growth was measured at OD470, and normalized to the DMSO control (100%)."}, "[3]": {"molecular_target": "GtfC catalytic domain (Streptococcus mutans serotype c (strain ATCC 700610 / UA159), UniProt P13470)", "sequence (P13470 295-1103 limits assumed)": "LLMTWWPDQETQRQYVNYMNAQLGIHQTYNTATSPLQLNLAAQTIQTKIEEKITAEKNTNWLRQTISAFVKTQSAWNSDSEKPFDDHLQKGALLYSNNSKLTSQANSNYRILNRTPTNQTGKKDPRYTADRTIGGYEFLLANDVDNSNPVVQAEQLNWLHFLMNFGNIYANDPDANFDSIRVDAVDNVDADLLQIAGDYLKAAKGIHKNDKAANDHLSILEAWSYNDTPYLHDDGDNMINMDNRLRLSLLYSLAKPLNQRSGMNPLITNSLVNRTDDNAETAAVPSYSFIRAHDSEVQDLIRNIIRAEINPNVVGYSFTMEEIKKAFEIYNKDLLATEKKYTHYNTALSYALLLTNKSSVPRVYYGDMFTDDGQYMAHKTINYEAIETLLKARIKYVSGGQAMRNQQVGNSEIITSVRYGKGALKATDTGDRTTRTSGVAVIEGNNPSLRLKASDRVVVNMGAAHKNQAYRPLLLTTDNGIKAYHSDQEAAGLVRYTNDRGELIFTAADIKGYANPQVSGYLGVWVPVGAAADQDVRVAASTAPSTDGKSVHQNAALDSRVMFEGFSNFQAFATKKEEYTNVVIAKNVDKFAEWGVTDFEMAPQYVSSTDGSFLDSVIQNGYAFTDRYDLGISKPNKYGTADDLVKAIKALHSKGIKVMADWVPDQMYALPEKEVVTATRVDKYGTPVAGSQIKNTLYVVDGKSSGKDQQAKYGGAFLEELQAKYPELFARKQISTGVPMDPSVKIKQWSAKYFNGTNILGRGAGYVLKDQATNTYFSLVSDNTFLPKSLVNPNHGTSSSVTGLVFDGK", "experiment": "OctetRed96 binding kinetics, GtfC", "description": "To determine if the inhibition is attributed by the binding of the lead compound to the enzymes, the OctetRed96 system was used to characterize protein-small molecule binding kinetics. The his-tagged catalytic domains of GtfB and GtC were immobilized separately onto an anti-penta-HIS (HIS1K) biosensor which consists of high affinity, high specificity penta-his antibody pre-immobilized on a fiber optic biosensor. This sensor was then exposed to varying concentrations of #G43.\nExpression and purification of GtfB and GtfC catalytic domains. The DNA fragment coding for either GtfB catalytic (residues 268 aa-1074 aa) or GtfC-catalytic (residues 295 aa-1103 aa) was PCR amplified with primer sets of GtfB-BamH1-F and GtfB-Xho1-R, GtfC-BamH1-F and GtfC-Xhol1-R respectively using S. mutans genomic DNA as a template. Each amplified fragment was cloned into pET-sumo vector respectively and transformed in Escherichia coli BL21(DE3). […]\nOctet Red analysis. […] The rate constant, KD, was determined using the Octet® Red96 system (ForteBio, Menlo Park, Calif.). […] The proteins were captured on dip-and-read Anti-Penta-HIS (HIS1K) Biosensor. […] The binding of #G43 at 3-fold serial dilutions in phosphate buffer from 200, 66.6, 22.2, 7.4, 2.5 to 0 μM was assessed. […]\nOctetRed analysis. […] Sensorgrams and the accuracy of the analysis was calculated using the ForteBio OctetRed analysis software (ForteBio, Menlo Park, Calif.)."}, "[4]": {"system": "gtfs expression", "experiment": "Real time RT-PCR of gtfs expression", "assay_type": "cell-based, Streptococcus mutans", "details": "S. mutans UA159, different concentrations, calibrated by 16S rRNA", "method": "The expression of gtfs was examined by real time RT-PCR. The mRNA expression levels were calibrated by 16S rRNA. Values represent the means±standard deviations from three independent experiments. […] The P value>0.05 is considered to be not significant.\nThe effect of this potent small molecule on the gene expression of gtfs was also examined. The relative expression level of gtfs was evaluated by real time RT-PCR."}, "[5]": {"molecular_target": "GtfB (Streptococcus mutans serotype c (strain ATCC 700610 / UA159), UniProt P08987)", "sequence (P08987 35-1476 limits assumed)": "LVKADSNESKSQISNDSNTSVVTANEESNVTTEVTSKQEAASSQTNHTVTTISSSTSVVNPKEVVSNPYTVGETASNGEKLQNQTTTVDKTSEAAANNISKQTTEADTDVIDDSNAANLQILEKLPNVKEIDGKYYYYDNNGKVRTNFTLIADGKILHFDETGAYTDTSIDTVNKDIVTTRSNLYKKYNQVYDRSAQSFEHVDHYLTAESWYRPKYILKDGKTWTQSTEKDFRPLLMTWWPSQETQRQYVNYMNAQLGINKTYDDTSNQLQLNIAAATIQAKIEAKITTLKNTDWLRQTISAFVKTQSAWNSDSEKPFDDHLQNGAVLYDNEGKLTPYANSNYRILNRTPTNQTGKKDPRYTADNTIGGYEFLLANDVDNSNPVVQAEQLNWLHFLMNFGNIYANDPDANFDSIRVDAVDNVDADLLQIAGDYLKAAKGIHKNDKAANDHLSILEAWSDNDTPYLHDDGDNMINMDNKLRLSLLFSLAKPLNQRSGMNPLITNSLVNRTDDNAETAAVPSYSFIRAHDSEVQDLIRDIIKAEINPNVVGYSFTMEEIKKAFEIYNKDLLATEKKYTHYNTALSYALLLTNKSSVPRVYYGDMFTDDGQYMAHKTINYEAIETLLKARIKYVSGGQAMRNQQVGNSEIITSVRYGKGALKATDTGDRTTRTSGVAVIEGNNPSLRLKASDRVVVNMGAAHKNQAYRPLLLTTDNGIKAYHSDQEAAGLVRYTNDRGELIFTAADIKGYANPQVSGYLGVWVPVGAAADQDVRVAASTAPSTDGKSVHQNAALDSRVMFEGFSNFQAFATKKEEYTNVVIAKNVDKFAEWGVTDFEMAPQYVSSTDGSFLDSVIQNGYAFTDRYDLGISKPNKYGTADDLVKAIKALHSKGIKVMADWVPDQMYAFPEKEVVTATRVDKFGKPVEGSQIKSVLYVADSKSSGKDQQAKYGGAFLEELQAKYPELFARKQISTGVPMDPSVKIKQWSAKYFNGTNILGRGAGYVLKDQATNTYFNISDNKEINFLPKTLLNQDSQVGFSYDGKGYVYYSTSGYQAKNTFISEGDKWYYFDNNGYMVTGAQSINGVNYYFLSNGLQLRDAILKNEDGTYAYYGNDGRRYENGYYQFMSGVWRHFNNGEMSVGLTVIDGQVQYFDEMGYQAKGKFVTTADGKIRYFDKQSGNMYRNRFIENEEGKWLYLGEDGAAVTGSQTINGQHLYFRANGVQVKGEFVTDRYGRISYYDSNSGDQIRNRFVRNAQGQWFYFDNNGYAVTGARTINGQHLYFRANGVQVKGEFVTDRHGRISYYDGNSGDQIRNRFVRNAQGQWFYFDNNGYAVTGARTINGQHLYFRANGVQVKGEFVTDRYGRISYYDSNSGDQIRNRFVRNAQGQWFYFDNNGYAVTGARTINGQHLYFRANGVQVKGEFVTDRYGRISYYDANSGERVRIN", "experiment": "Zymographic assay on GtfB from S. mutans GtfCD mutants", "assay_type": "biochemical", "details": "25 μM", "method": "FIGS. 3A-3C show Gtf patterns of S. mutans UA159 and its mutant variants. Culture supernatants were prepared from S. mutans UA159 and gtf double mutants, and then subjected to SDS-PAGE analysis with equivalent amount of proteins in each lane. […] The intensity of the bands were quantified using ImageJ in comparison to DMSO.\nSupernatants containing Gtf proteins prepared from S. mutans bacterial cultures were subjected to SDS-PAGE analysis and zymographic assay. […] The same amount of the protein sample was used as controls and visualized by protein staining (FIG. 3A, top panels). The lead compounds were also tested against individual Gtfs using supernatant proteins harvested from cultures of various double mutants.\nConstruction of S. mutans Gtfs mutants. GtfB, GtfC single mutant, and GtfBC double mutant in which gtf was replaced with a kanamycin resistance cassette, aphA3 (encoding an aminoglycoside phosphotransferase), were gifts from Dr. Robert Burne's Laboratory, University of Florida, Gainesville, Fla. The GtfD mutant was constructed by an overlapping PCR ligation strategy using an erythromycin resistance cassette isolated from the IFDC2 cassette (Xie, Z., Okinaga, T., Qi, F., Zhang, Z. & Merritt, J. Cloning-independent and counterselectable markerless mutagenesis system in Streptococcus mutans. Appl Environ Microbiol 77, 8025-8033 (2011))."}, "[6]": {"system": "S. sanguinis biofilm", "experiment": "Mono-species biofilm of S. sanguinis", "assay_type": "cell-based, Streptococcus sanguinis", "details": "up to 200 μM", "method": "as §1"}, "[7]": {"system": "S. mutans colonization", "experiment": "Sucrose-dependent Drosophila colonization model", "assay_type": "in vivo", "details": "50 μM", "protocol": "Briefly, Gfp tagged S. mutans bacteria were infected into flies along with the treatment appropriate compound at 100 μM in a feeding-assay.\nMid-log phase THB cultures of Gfp-tagged (green fluorescent protein) S. mutans UA159 were spun down and resuspended in a solution containing 5% sucrose and 50 μM of the compound. 100 μL of resuspended cells were spotted onto a sterile filter that was placed on the surface of 5 mL of solidified 5% sucrose agar in a plastic vial. The vials were allowed to dry at room temperature for 30 minutes prior to addition of flies. Male Canton S flies (1-3 days old) were treated with antibiotics for 2 days and starved for 3 hours prior to the addition to vials supplied with S. mutans (10 flies per vial). The colonization of flies by Gfp-tagged strains were analyzed by Nikon elipse 90i microscope, equipped with an Epi-fluorescence and NIS elements AR imaging system.\nThe intensity of the fluorescence was measured in the guts of the flies fed with the Gfp tagged bacteria after 7 days of infection.\nCultures of Gfp-tagged (green fluorescent protein) S. mutans UA159 grown to middle log phase were spun down and re-suspended in a solution containing 5% sucrose and 50 μM of each compound. 100 μL of re-suspended cells were aliquoted onto a sterile filter that was placed on the surface of 5 mL of solidified 5% sucrose agar in a plastic vial. Upon the drying of the vials at room temperature for 30 min, the flies were introduced to the vessels. Male Canton S flies (1-3 days old) were treated with antibiotics for 2 days and starved for 3 h before the addition to vials supplied with S. mutans (10-14 flies per vial). Nikon elipse 90i microscope, equipped with an Epi-fluorescence and NIS elements AR imaging system was used to analyze the colonization of flies by Gfp-tagged strains."}}}
{"smiles": "NC(=O)c1ccccc1NC(=O)c1cc2cc([N+](=O)[O-])ccc2s1", "note": "[#G43]", "values": [{"measurement": "S. gordonii biofilm formation", "setting": "[1]", "value": "slight increase"}, {"measurement": "inhibition of Actinomyces naeslundii growth", "setting": "[2]", "value": "> 20", "unit": "%"}, {"measurement": "Kd", "setting": "[3]; 1:1 binding model", "value": 0.0469, "unit": "µM"}, {"measurement": "expression of gtfs versus DMSO", "setting": "[4]", "value": "no significant difference was observed"}, {"measurement": "inhibition of GtfB activity (ImageJ band intensity)", "setting": "[5]", "value": 80, "unit": "%"}, {"measurement": "S. sanguinis biofilm formation versus control", "setting": "[6]", "value": "No significant difference"}]}
{"smiles": "Oc1cc(O)cc(/C=C/c2ccc(O)c(O)c2)c1", "note": "[Piceatannol]", "values": [{"measurement": "fluorescence of Gfp tagged S. mutans in fly guts after 7 days", "setting": "[7]", "value": "significant decrease in fluorescence"}]}
{"smiles": "Oc1ccc(/C=C/c2cc(O)cc(O)c2)cc1", "note": "[Resveratrol, reference compound]", "values": [{"measurement": "Kd", "setting": "[3]; stilbenes, 1:1 binding mode", "value": 510, "unit": "µM"}]}
